Reference: US20160115136A1, “COMPOUNDS, COMPOSITIONS COMPRSING SAME, AND METHODS RELATED THERETO” (UNIVERSITY OF IOWA RESEARCH FOUNDATION, priority 2013, published 2016)
Values after ≈ are worked out from the molar mass of the structure shown. Values joined by “and” are separate entries in the source; they are usually repeats but may differ in a detail not shown here. Equal entries are not always repeated. Where two headings read alike, the source gives them in different places.

Tests used:
[1] = target: T1, glutamate racemase (GR) from B. subtilis (Bacillus subtilis, UniProt P94556); assay: biochemical
T1 sequence (P94556 whole entry): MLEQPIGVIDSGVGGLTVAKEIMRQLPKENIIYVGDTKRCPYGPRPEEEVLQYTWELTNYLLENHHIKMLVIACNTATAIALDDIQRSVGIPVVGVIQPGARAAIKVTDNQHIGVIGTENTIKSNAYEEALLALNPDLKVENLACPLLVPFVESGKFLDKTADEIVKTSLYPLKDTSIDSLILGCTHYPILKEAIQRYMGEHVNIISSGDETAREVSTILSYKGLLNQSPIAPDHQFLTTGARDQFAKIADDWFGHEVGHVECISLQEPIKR

[2] = target: T1, glutamate racemase (GR) from B. subtilis; settings: for Ki: read-out: Ki value
[3] = test system: B. subtilis DB104; assay: Inhibition of bacterial growth (MIC50, absorbance at 600 nm, 24 h)
[4] = test system: E. coli Acella; assay: as above; settings: for growth inhibition: concentrations <3 mg mL^−1
[5] = test system: S. aureus ATCC 12600; assay: as above; settings: for growth inhibition: concentrations <3 mg mL^−1
[6] = target: T2, glutamate racemase isozyme 2 from Bacillus anthracis (RacE2) (Bacillus anthracis, UniProt A0A6L8PKK6); assay: biochemical; type: biochemical
T2 sequence (A0A6L8PKK6 1-269): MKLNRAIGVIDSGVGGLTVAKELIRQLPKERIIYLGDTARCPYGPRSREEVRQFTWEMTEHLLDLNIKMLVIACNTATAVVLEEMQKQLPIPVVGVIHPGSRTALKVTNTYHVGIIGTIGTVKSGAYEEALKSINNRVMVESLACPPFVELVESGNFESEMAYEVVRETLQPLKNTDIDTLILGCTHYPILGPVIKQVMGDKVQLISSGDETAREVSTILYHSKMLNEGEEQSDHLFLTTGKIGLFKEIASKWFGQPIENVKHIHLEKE

[7] = target: GR from B. anthracis isozyme 1 (RacE1) (Bacillus anthracis, UniProt A0A6L8PVU3); assay: biochemical
Sequence of GR from B. anthracis isozyme 1 (RacE1) (A0A6L8PVU3 1-276): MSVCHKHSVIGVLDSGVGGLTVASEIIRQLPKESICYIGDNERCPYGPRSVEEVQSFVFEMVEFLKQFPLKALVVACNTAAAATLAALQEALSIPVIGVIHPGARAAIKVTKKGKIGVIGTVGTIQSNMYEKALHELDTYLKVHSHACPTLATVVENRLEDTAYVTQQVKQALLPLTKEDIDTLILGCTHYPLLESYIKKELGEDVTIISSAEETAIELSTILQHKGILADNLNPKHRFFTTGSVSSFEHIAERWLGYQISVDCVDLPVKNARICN

[8] = target: GR from F. tularensis (Francisella tularensis, UniProt Q5NFN6); assay: biochemical
Sequence of GR from F. tularensis (Q5NFN6 1-265): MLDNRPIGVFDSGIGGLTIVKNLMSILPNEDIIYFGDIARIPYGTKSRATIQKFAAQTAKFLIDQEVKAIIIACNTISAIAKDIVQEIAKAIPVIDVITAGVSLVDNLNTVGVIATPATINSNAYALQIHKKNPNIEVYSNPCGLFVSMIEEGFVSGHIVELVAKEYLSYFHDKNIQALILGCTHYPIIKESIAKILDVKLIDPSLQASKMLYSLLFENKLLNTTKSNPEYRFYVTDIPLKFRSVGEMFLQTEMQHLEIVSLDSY

[9] = test system: glutamate racemase isozyme 2 from Bacillus anthracis (RacE2); assay: biochemical; type: biochemical; settings: FIG. 14, competitive inhibition model
[10] = test system: S. aureus; assay: Cell wall lysis assay (modified CytoTox-Glo, luminescence)
[11] = test system: B. subtilis; assay: as above
[12] = target: T3, glutamate racemase from H. pylori (Helicobacter pylori, UniProt P56068); type: biochemical
T3 sequence (P56068 1-255): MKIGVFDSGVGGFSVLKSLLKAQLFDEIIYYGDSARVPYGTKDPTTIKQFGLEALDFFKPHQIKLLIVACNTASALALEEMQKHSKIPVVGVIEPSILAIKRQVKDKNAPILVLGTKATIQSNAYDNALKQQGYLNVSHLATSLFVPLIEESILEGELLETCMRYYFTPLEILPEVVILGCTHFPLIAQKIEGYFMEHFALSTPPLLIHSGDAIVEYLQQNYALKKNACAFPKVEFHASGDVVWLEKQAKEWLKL

[13] = target: T2, glutamate racemase isozyme 2 from Bacillus anthracis (RacE2); type: biochemical; settings: 25° C., pH 8.0
[14] = Ki converted into binding energy divided by number of non-hydrogen atoms
[15] = from log(Ki) and calculated logP (MarvinSketch)
[16] = Staphylococcus aureus, ATCC12600

For `O=S(=O)(O)c1nc2ccc(Cl)cc2[nH]1` [Compound 26], the Ki [1] was 13 ± 2.4 µM, the “LE (ligand efficiency)” value [2, 14] was 0.48 kcal mol^−1 atom^−1 and the “LiPE (lipophilic efficiency)” value [2, 15] was 4.5. The MIC50 ([3]; Bacillus subtilis, DB104) was > 3000 µg/mL.

With `O=S(=O)(O)c1nc2cc(S(=O)(=O)N3CCOCC3)ccc2[nH]1` [Compound 29, 5-(morpholinosulfonyl)-1H-benzo[d]imidazole-2-sulfonic acid] the Ki [1] was 6.4 µM, the growth inhibition ([4]; E. coli) was “no significant growth inhibition” and the MIC50 ([4]; Escherichia coli) was > 3000 µg/mL. For the same compound, the “LE (ligand efficiency)” value [2, 14] was 0.34 kcal mol^−1 atom^−1, the “LiPE (lipophilic efficiency)” value [2, 15] was 6.6 and the growth inhibition ([5]; S. aureus) was “no significant growth inhibition”. For the same compound, the MIC50 [5, 16] was > 3000 µg/mL and the MIC50 ([3]; Bacillus subtilis, DB104) was 320 ± 10 µg/mL (≈ 0.921 mM).

With `Cc1ccc2[nH]c(S(=O)(=O)O)nc2c1` [Compound 15] the Ki [1] was 21 ± 5 µM, the “LE (ligand efficiency)” value [2, 14] was 0.46 kcal mol^−1 atom^−1 and the “LiPE (lipophilic efficiency)” value [2, 15] was 4.4. For the same compound, the MIC50 ([3]; Bacillus subtilis, DB104) was > 3000 µg/mL.

With `O=S(=O)(O)c1nc2ccccc2[nH]1` [Compound 2, 1H-benzimidazole-2-sulfonic acid] the IC50 [6] was 40 ± 5 µM, the IC50 [1] was 250 ± 20 µM and the IC50 [7] was 120 ± 5 µM. The IC50 [8] was 110 ± 12 µM, the “LE (ligand efficiency)” value [2] was 0.53 kcal mol^−1 atom^−1 and the “LiPE (lipophilic efficiency)” value [2] was 5.3. It also gave a Ki ([2]; GR from B. subtilis) of 9 µM and an MIC50 ([3]; Bacillus subtilis, DB104) of 720 ± 60 µg/mL (≈ 3.63 mM).

“7-fluoro-2-sulfo-1H-benzo[d]imidazole-5-carboxylic acid [Compound 4] [listing 1 of 2 here]” was tested, and the “potency against B. anthracis RacE2 relative to B. subtilis GR” value [9] was “equal potency”, the MIC50 ([4]; E. coli) was 1600 ± 200 µg/mL and the increase in luminescence ([10]; S. aureus, millimolar inhibitor concentration range) was ~40%. The “LE (ligand efficiency)” value [2, 14] was 0.45 kcal mol^−1 atom^−1, the Ki [2] was 2.5 µM and the MIC50 ([5]; S. aureus) was 1000 ± 250 µg/mL. The MIC50 ([3]; B. subtilis) was 260 ± 110 µg/mL, the “MIC50 value for growth inhibition” value ([3]; B. subtilis) was 260 µg/mL and the MIC50 ([3]; B. subtilis, FIG. 15) was 1,788 μM and 460 μg/mL. For the same compound, the “MIC50 value for bacterial growth inhibition” value ([3]; B. subtilis, FIG. 17) was 2 mM, the EC50 for lysis [11] was 520 µg/mL and the increase in luminescence ([11]; low-millimolar range) was 400%. The EC50 ([11]; read-out: EC50 value of cell lysis, FIG. 17, within the same range as the MIC50) was ~2 mM, the IC50 ([12]; best-fit value, Table 5) was 102 µM and the “Hill Slope (best-fit value)” value ([12]; dose-response fit) was −6.498. For the same compound, the IC50 ([12]; dose-response inhibition model, FIG. 16) was ~100 µM and the “LogIC50 (best-fit value)” value ([12]; log of compound concentration in mM) was −0.9935.

`O=C(c1ccccc1)c1ccc2[nH]c(S(=O)(=O)O)nc2c1` [Compound 24] was tested, and the Ki [1] was 830 ± 75 µM, the “loss in binding affinity versus parent compound” value [2] was ~100 fold and the “LE (ligand efficiency)” value [2, 14] was 0.20 kcal mol^−1 atom^−1. The “LiPE (lipophilic efficiency)” value [2, 15] was 1.9 and the MIC50 ([3]; Bacillus subtilis, DB104) was 140 ± 20 µg/mL (≈ 0.463 mM).

In the case of `CCCCNS(=O)(=O)c1ccc2[nH]c(S(=O)(=O)O)nc2c1` [Compound 18, 5-(n-butylsulfamoyl)-1H-benzo[d]imidazole-2-sulfonic acid], the Ki [1] is reported as 12 ± 3.6 µM, the growth inhibition ([4]; E. coli) is reported as “no significant growth inhibition” and the MIC50 ([4]; Escherichia coli) is reported as > 3000 µg/mL. For the same compound, the “LE (ligand efficiency)” value [2, 14] was 0.30 kcal mol^−1 atom^−1, the “LiPE (lipophilic efficiency)” value [2, 15] was 5.0 and the growth inhibition ([5]; S. aureus) was “no significant growth inhibition”. The MIC50 [5, 16] was > 3000 µg/mL and the MIC50 ([3]; Bacillus subtilis, DB104) was 360 ± 20 µg/mL (≈ 1.08 mM).

“7-fluoro-2-sulfo-1H-benzo[d]imidazole-5-carboxylic acid [Compound 4] [listing 2 of 2 here]” gave a Ki [13] of 5.4 ± 2.5 µM.

With `CC1(C)S[C@@H]2[C@H](NC(=O)[C@H](N)c3ccccc3)C(=O)N2[C@H]1C(=O)O` [ampicillin, reference compound] the “luminescence response (cell lysis)” value ([10]; S. aureus exposed 24 h, control antibiotics, FIG. 23A) was “dose-dependent increase in luminescence”.
